From PubChem BioAssay (NCI)
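How tested: cells in 96-well plates exposed to compound for 48 hours at five concentrations. TGI marks complete inhibition of growth.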

Tests used:
Experiment in all cases: inhibition of tumour cell growth, NCI panel, 48 h
786-0 renal = test system: 786-0 renal
A498 renal = test system: A498 renal
A549 NSCLC = test system: A549 NSCLC
ACHN renal = test system: ACHN renal
BT-549 breast = test system: BT-549 breast
CAKI-1 renal = test system: CAKI-1 renal
COLO 205 colon = test system: COLO 205 colon
DU-145 prostate = test system: DU-145 prostate
EKVX NSCLC = test system: EKVX NSCLC
HCC-2998 colon = test system: HCC-2998 colon
HCT-116 colon = test system: HCT-116 colon
HCT-15 colon = test system: HCT-15 colon
HOP-92 NSCLC = test system: HOP-92 NSCLC
HT29 colon = test system: HT29 colon
IGROV1 ovarian = test system: IGROV1 ovarian
K-562 leukemia = test system: K-562 leukemia
KM12 colon = test system: KM12 colon
M14 melanoma = test system: M14 melanoma
MALME-3M melanoma = test system: MALME-3M melanoma
MCF7 breast = test system: MCF7 breast
MDA-MB-231 breast = test system: MDA-MB-231 breast
MDA-MB-435 = test system: MDA-MB-435
MDA-N = test system: MDA-N
MOLT-4 leukemia = test system: MOLT-4 leukemia
NCI-H226 lung = test system: NCI-H226 lung
NCI-H23 lung = test system: NCI-H23 lung
NCI-H460 lung = test system: NCI-H460 lung
NCI-H522 lung = test system: NCI-H522 lung
NCI/ADR-RES ovarian = test system: NCI/ADR-RES ovarian
OVCAR-4 ovarian = test system: OVCAR-4 ovarian
OVCAR-5 ovarian = test system: OVCAR-5 ovarian
PC-3 prostate = test system: PC-3 prostate
RPMI-8226 leukemia = test system: RPMI-8226 leukemia
RXF 393 renal = test system: RXF 393 renal
SF-268 CNS = test system: SF-268 CNS
SF-295 CNS = test system: SF-295 CNS
SK-MEL-2 melanoma = test system: SK-MEL-2 melanoma
SK-MEL-28 melanoma = test system: SK-MEL-28 melanoma
SK-MEL-5 melanoma = test system: SK-MEL-5 melanoma
SK-OV-3 ovarian = test system: SK-OV-3 ovarian
SN12C renal = test system: SN12C renal
SNB-19 CNS = test system: SNB-19 CNS
SNB-75 CNS = test system: SNB-75 CNS
SW-620 colon = test system: SW-620 colon
TK-10 renal = test system: TK-10 renal
U251 CNS = test system: U251 CNS
UACC-257 melanoma = test system: UACC-257 melanoma
UACC-62 melanoma = test system: UACC-62 melanoma
UO-31 renal = test system: UO-31 renal
CCRF-CEM leukemia = test system: CCRF-CEM leukemia
HL-60(TB) leukemia = test system: HL-60(TB) leukemia
HOP-62 NSCLC = test system: HOP-62 NSCLC
HS 578T breast = test system: HS 578T breast
LOX IMVI melanoma = test system: LOX IMVI melanoma
OVCAR-3 ovarian = test system: OVCAR-3 ovarian
OVCAR-8 ovarian = test system: OVCAR-8 ovarian
SF-539 CNS = test system: SF-539 CNS
SR leukemia = test system: SR leukemia

O=C(COc1ccc(OCC(=O)N2C(=O)CSC2=Nc2ccccc2)cc1)N1C(=O)CSC1=Nc1ccccc1
TGI (786-0 renal): 63.2 µM
TGI (A498 renal): > 100 µM
TGI (A549 NSCLC): > 100 µM
TGI (ACHN renal): > 100 µM
TGI (BT-549 breast): > 100 µM
TGI (CAKI-1 renal): 47.7 µM
TGI (COLO 205 colon): 96.2 µM
TGI (DU-145 prostate): > 100 µM
TGI (EKVX NSCLC): > 100 µM
TGI (HCC-2998 colon): 44.2 µM
TGI (HCT-116 colon): 27.3 µM
TGI (HCT-15 colon): > 100 µM
TGI (HOP-92 NSCLC): > 100 µM
TGI (HT29 colon): 41.2 µM
TGI (IGROV1 ovarian): 82.8 µM
TGI (K-562 leukemia): > 100 µM
TGI (KM12 colon): 44.3 µM
TGI (M14 melanoma): > 100 µM
TGI (MALME-3M melanoma): 86.2 µM
TGI (MCF7 breast): > 100 µM
TGI (MDA-MB-231 breast): 90.1 µM
TGI (MDA-MB-435): > 100 µM
TGI (MDA-N): 79.7 µM
TGI (MOLT-4 leukemia): > 100 µM
TGI (NCI-H226 lung): > 100 µM
TGI (NCI-H23 lung): > 100 µM
TGI (NCI-H460 lung): > 100 µM
TGI (NCI-H522 lung): 42.1 µM
TGI (NCI/ADR-RES ovarian): > 100 µM
TGI (OVCAR-4 ovarian): > 100 µM
TGI (OVCAR-5 ovarian): 91.9 µM
TGI (PC-3 prostate): > 100 µM
TGI (RPMI-8226 leukemia): > 100 µM
TGI (RXF 393 renal): > 100 µM
TGI (SF-268 CNS): > 100 µM
TGI (SF-295 CNS): > 100 µM
TGI (SK-MEL-2 melanoma): > 100 µM
TGI (SK-MEL-28 melanoma): > 100 µM
TGI (SK-MEL-5 melanoma): 33.3 µM
TGI (SK-OV-3 ovarian): > 100 µM
TGI (SN12C renal): > 100 µM
TGI (SNB-19 CNS): > 100 µM
TGI (SNB-75 CNS): > 100 µM
TGI (SW-620 colon): > 100 µM
TGI (TK-10 renal): > 100 µM
TGI (U251 CNS): > 100 µM
TGI (UACC-257 melanoma): > 100 µM
TGI (UACC-62 melanoma): 36 µM
TGI (UO-31 renal): > 100 µM

CC(=O)NC(C)(C)C1CC=C(C)CC1 (centres undefined)
TGI (786-0 renal): > 100 µM
TGI (A498 renal): > 100 µM
TGI (A549 NSCLC): > 100 µM
TGI (ACHN renal): > 100 µM
TGI (BT-549 breast): > 100 µM
TGI (CAKI-1 renal): > 100 µM
TGI (CCRF-CEM leukemia): > 100 µM
TGI (COLO 205 colon): > 100 µM
TGI (DU-145 prostate): > 100 µM
TGI (EKVX NSCLC): > 100 µM
TGI (HCC-2998 colon): > 100 µM
TGI (HCT-116 colon): > 100 µM
TGI (HCT-15 colon): > 100 µM
TGI (HL-60(TB) leukemia): > 100 µM
TGI (HOP-62 NSCLC): > 100 µM
TGI (HS 578T breast): > 100 µM
TGI (HT29 colon): > 100 µM
TGI (IGROV1 ovarian): > 100 µM
TGI (K-562 leukemia): > 100 µM
TGI (KM12 colon): > 100 µM
TGI (LOX IMVI melanoma): > 100 µM
TGI (M14 melanoma): > 100 µM
TGI (MALME-3M melanoma): > 100 µM
TGI (MCF7 breast): > 100 µM
TGI (MDA-MB-231 breast): > 100 µM
TGI (MDA-MB-435): > 100 µM
TGI (MDA-N): > 100 µM
TGI (MOLT-4 leukemia): > 100 µM
TGI (NCI-H226 lung): > 100 µM
TGI (NCI-H23 lung): > 100 µM
TGI (NCI-H460 lung): > 100 µM
TGI (NCI/ADR-RES ovarian): > 100 µM
TGI (OVCAR-3 ovarian): > 100 µM
TGI (OVCAR-4 ovarian): > 100 µM
TGI (OVCAR-5 ovarian): > 100 µM
TGI (OVCAR-8 ovarian): > 100 µM
TGI (PC-3 prostate): > 100 µM
TGI (RPMI-8226 leukemia): > 100 µM
TGI (RXF 393 renal): > 100 µM
TGI (SF-268 CNS): > 100 µM
TGI (SF-295 CNS): > 100 µM
TGI (SF-539 CNS): > 100 µM
TGI (SK-MEL-28 melanoma): > 100 µM
TGI (SK-MEL-5 melanoma): > 100 µM
TGI (SK-OV-3 ovarian): > 100 µM
TGI (SN12C renal): > 100 µM
TGI (SNB-19 CNS): > 100 µM
TGI (SNB-75 CNS): > 100 µM
TGI (SR leukemia): > 100 µM
TGI (SW-620 colon): > 100 µM
TGI (TK-10 renal): > 100 µM
TGI (U251 CNS): > 100 µM
TGI (UACC-257 melanoma): > 100 µM
TGI (UACC-62 melanoma): > 100 µM
TGI (UO-31 renal): > 100 µM
